Test results published in US20110230497A1, “BIOLOGICALLY ACTIVE AMIDES” (H. Lundbeck A/S, priority 2008, published 2011).

Legend:
NPY Y5 receptor [1] = molecular target: T1, NPY Y5 receptor (Homo sapiens, UniProt Q15761); assay: Radioligand (125I-PYY) binding to membrane suspensions, cloned human NPY Y5 receptor; parameters: expressed in transfected cells; host or cells: LM(tk-) cells (typically); settings: 125I-PYY competition binding, membranes of transfected cells; read-out: Ki (nM), binding affinity of selected compounds
T1 sequence (Q15761 1-445): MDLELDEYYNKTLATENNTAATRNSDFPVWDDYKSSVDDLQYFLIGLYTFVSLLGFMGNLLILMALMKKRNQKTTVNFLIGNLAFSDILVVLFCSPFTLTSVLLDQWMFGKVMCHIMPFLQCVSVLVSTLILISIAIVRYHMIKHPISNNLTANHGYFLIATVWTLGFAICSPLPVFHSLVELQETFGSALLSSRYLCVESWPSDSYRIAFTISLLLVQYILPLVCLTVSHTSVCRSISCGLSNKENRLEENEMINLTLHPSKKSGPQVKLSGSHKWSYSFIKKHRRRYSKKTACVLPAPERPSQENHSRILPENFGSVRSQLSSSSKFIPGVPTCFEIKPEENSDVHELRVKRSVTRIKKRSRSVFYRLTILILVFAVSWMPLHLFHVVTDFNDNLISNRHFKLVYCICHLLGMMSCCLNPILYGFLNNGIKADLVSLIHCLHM
Procedure: The pharmacological properties of the compounds of the present invention were evaluated at the cloned human NPY Y5 receptor using the protocols disclosed in U.S. Pat. No. 6,124,331, the contents of which are hereby incorporated by reference, or in an assay as similarly described therein for NPY Y5 binding activity. The procedures for cell culture, transient transfection and membrane harvest, which are well known in the art, are described therein
Briefly, membrane suspensions from transfected cells (typically expressed in LM(tk-) cells) and ^125I-PYY radioligand (PerkinElmer, Waltham, Mass.) were diluted in binding buffer supplemented with 0.1% bovine serum albumin to yield an optimal membrane protein concentration so that ^125I-PYY bound by membranes in the assay was less than 10% of ^125I-PYY delivered to the sample (100,000 dpm/sample=0.08 nM for competition binding assays). Test compounds were diluted to desired concentrations with supplemented binding buffer in the presence of 30% DMSO. The binding assay was performed in 96-well polypropylene microtiter plates by mixing ^125I-PYY, test compound (25 μL), and finally, membrane suspensions (200 μL). Final DMSO=3%. Samples were incubated in at room temperature for about 120 min. Incubations were terminated by filtration over Whatman GF/C filters (pre-coated with 1% polyethyleneimine and air-dried before use), followed by washing with ice-cold binding buffer. Filter-trapped membranes were impregnated with MeltiLex solid scintillant (Wallac, Turku, Finland) and counted for ^125I-PYY in a Wallac MicroBeta Trilux. Non-specific binding was defined by 1000 nM porcine NPY. Specific binding was typically 80%; most non-specific binding was associated with the filter. Binding data were analyzed using nonlinear regression and statistical techniques available in the GraphPAD Prism package (San Diego, Calif.).

NPY Y5 receptor [2] = molecular target: T1, NPY Y5 receptor; assay: NPY Y5-dependent inhibition of forskolin-stimulated cAMP accumulation; type: cell-based; parameters: expressed in transfected cells; settings: effect on agonist (NPY) activity, cAMP HTRF
Procedure: Stably transfected cells were seeded into 96-well microtiter plates and cultured until confluent. To reduce the potential for receptor desensitization, the serum component of the media was reduced to 1.5% for 4 to 16 hours before the assay. Cells were washed in […], or HBS (150 mM NaCl, 20 mM HEPES, 1 mM CaCl2, 5 mM KCl, 1 mM MgCl2, and 10 mM glucose) supplemented with 0.1% bovine serum albumin plus 100 uM IBMX. Test compounds were diluted to desired concentrations with assay buffer in the presence of 10% DMSO, then transferred to the cell plate and allowed to incubate for 20 min at 37° C. in 5% CO2 (final DMSO=1%). Cells were then stimulated with NPY (up to 10 uM) for a period of 5 min, followed by forskolin (10 uM) for another 5 min. The assay was then terminated and intracellular cAMP was quantified by with highthroughput time-resolved fluorometry (HTRF kit from CisBio, Bedford, Mass.). The effect of the test compound on agonist (NPY) activity were analyzed using nonlinear regression and statistical techniques available in the GraphPAD Prism package (San Diego, Calif.).

Row | SMILES | Ki (NPY Y5 receptor [1]) [nM] | function at the NPY Y5 receptor (NPY Y5 receptor [2])
1 | CC(=O)N1CCN(CC(=O)Nc2ccc(-c3cc(F)cc(F)c3)cn2)CC1 [Example 1a, 2-(4-Acetyl-piperazin-1-yl)-N-[5-(3,5-difluoro-phenyl)-pyridin-2-yl]-acetamide] | 220 | 
2 | CC(=O)N1CCN(CC(=O)Nc2ccc(-c3cc(F)cc(F)c3)cn2)C[C@@H]1C [Example 1e, 2-((S)-4-Acetyl-3-methyl-piperazin-1-yl)-N-[5-(3,5-difluoro-phenyl)-pyridin-2-yl]-acetamide] | 120 | 
3 | CC(=O)N1CCC(CC(=O)Nc2ccc(-c3cc(F)cc(F)c3)cn2)CC1 [Example 2a, 2-(1-Acetyl-piperidin-4-yl)-N-[5-(3,5-difluoro-phenyl)-pyridin-2-yl]-acetamide] | 46 | antagonists
4 | CS(=O)(=O)N1CCC(CC(=O)Nc2ccc(-c3cc(F)cc(F)c3)nc2)CC1 [Example 2aj, N-[6-(3,5-Difluoro-phenyl)-pyridin-3-yl]-2-(1-methanesulfonyl-piperidin-4-yl)-acetamide] | 28 | 
5 | O=C(C[C@H]1CCN2C(=O)CC[C@H]2C1)Nc1ccc(-c2cc(F)cc(F)c2)cn1 [Example 3a] | 36 | 
6 | O=C(C[C@H]1CCN2C(=O)OC[C@H]2C1)Nc1ccn(-c2ccc(Cl)cc2F)n1 [Example 3cc, N-[1-(4-Chloro-2-fluoro-phenyl)-1H-pyrazol-3-yl]-2-((7S,8aR)-3-oxo-hexahydro-oxazolo[3,4-a]pyridin-7-yl)-acetamide] | 8 | 
7 | O=C(C[C@H]1CCN2C(=O)OC[C@H]2C1)Nc1cc(-c2cccc(C(F)(F)F)c2)no1 [Example 3hh, 2-((7S,8aR)-3-oxo-hexahydro-oxazolo[3,4-a]pyridin-7-yl)-N-[3-(3-trifluoromethyl-phenyl)-isoxazol-5-yl]-acetamide] | 39 | 
8 | CC1(C)OC(=O)N2CCC(CC(=O)Nc3ccn(-c4ccccc4F)n3)CC21 (centres unmarked) [Example 3i, 2-(1,1-Dimethyl-3-oxo-hexahydro-oxazolo[3,4-a]pyridin-7-yl)-N-[1-(2-fluoro-phenyl)-1H-pyrazol-3-yl]-acetamide] | 50 | 
9 | O=C(CC1CCN2C(=O)OCC2C1)Nc1cnc(-c2cc(F)cc(F)c2)cn1 (centres unmarked) [Example 3l, N-[5-(3,5-Difluoro-phenyl)-pyrazin-2-yl]-2-(3-oxo-hexahydro-oxazolo[3,4-a]pyridin-7-yl)-acetamide] | 25 | 
10 | O=C(C[C@H]1CCN2C(=O)OC[C@H]2C1)Nc1ccc(-c2cc(F)cc(F)c2)cn1 [Example 3o, N-[5-(3,5-Difluoro-phenyl)-pyridin-2-yl]-2-((7S,8aR)-3-oxo-hexahydro-oxazolo[3,4-a]pyridin-7-yl)-acetamide] | 17 | 
11 | CC(=O)N1CCC(C(C)(C)C(=O)Nc2ccc(-c3cc(F)cc(F)c3)cn2)CC1 [Example 4a, 2-(1-Acetyl-piperidin-4-yl)-N-[5-(3,5-difluoro-phenyl)-pyridin-2-yl]-isobutyramide] | 66 | antagonists

Results, then the compound that gave them:

Row | Ki (NPY Y5 receptor [1]) [nM] | function at the NPY Y5 receptor (NPY Y5 receptor [2]) | SMILES
12 | 120 |  | CC(=O)N1CCC(CC(=O)Nc2ccc(-c3ccccc3)cc2)CC1 [Example 5a, 2-(1-Acetyl-piperidin-4-yl)-N-biphenyl-4-yl-acetamide]
13 | 2.7 |  | O=C(C1CCC1)N1CCC(C2(C(=O)Nc3ccc(-c4cc(F)cc(F)c4)cc3)CC2)CC1 [Example 5j]
14 | 14 |  | O=C(c1ccccn1)N1CCC(C2(C(=O)Nc3ccc(-c4cc(F)cc(F)c4)cc3)CC2)CC1 [Example 5m]
15 | 570 |  | Cn1nccc1C(=O)N1CCC(C(C)(C)C(=O)Nc2ccc(-c3cc(F)cc(F)c3)cn2)CC1 [Example 5q, N-[5-(3,5-Difluoro-phenyl)-pyridin-2-yl]-2-[1-(2-methyl-2H-pyrazole-3-carbonyl)-piperidin-4-yl]-isobutyramide]
